One data set deals with T1, papain (Carica papaya, UniProt P00784).
T1 sequence (P00784 134-345): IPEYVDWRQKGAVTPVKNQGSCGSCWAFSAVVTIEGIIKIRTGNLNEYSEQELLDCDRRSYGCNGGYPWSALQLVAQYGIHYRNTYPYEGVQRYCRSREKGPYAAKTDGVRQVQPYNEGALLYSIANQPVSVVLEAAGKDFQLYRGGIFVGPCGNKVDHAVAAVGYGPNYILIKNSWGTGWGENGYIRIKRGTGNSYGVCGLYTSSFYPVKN
Put plainly: inhibitory activity against papain. It counts as biochemical.

Another data set deals with pepsin (Sus scrofa, UniProt P00791). Put plainly: inhibitory activity against pepsin. It counts as biochemical.
A further data set has as its system subtilis. The experiment in a line: inhibitory activity against subtilis. The format is biochemical.
For the next data set, the target named is thermolysin (Bacillus thermoproteolyticus, UniProt P00800). The experiment in a line: inhibitory activity against thermolysin (casein digestion, Folin reagent). It counts as biochemical, genus Bacillus. The method, then: (§1) A mixture of 0.25 ml of sample solution in 0.05 M phosphate buffer at pH 7.5 and 0.25 ml of thermolysin solution (20 μg/ml in the same buffer was incubated for 10 minutes at 37° C. The mixture was added with 1.5 ml of 1.33% Hammarsten casein solution in 0.1M phosphate buffer (pH 7.0) and incubated for 10 minutes at 37° C. By the addition of 2 ml of 0.44 M trichloroacetic acid the reaction was stopped. After standing for 30 minutes at 37° C., the reaction mixture was filtered. To 1.0 ml of the filtrate 5 ml of 0.55 M Na2 CO3 and 1 ml of 2 times diluted Folin-Ciocaltean reagent were added. After standing for 60 minutes at 37° C., the absorbance (Is) was measured at 660 mμ. The blank value (Ib) was taken by carrying out the reaction using 0.25 ml of 0.05M phosphate buffer (pH 7.5) instead of thermolysin. […] Inhibition rate against enzyme activity is calculated by the following equation: [formula] Now, inhibitory activity against metallo proteinase produced by Pseudomonas aeruginosa can be measured in the same manner as above wherein amounts of enzyme used is established so as to have following value. A value of (Es-Eb) according to method for measuring inhibitory activity is 0.6 wherein cell length used for the measurement of absorbance is 1 cm.

In another data set the target is chymotrypsin (Bos taurus, UniProt P00766). Put plainly: inhibitory activity against chymotrypsin. The format is biochemical.
A short description of data set [1]: Stability in aqueous solution. The format is physicochemical.
The subject of data set [2] is metallo proteinase produced by Aspergillus oryzae. The experiment in a line: inhibitory activity against metallo proteinase of Aspergillus oryzae. It counts as biochemical.
The nature of another data set: Solubility. The format is physicochemical.
The test system of data set [3] is metallo proteinase produced by Pseudomonas aeruginosa. Put plainly: inhibitory activity against metallo proteinase of Pseudomonas aeruginosa (casein digestion). The format is biochemical. On the procedure:
as §1

Another data set concerns the target T2, trypsin (Bos taurus, UniProt P00760).
T2 sequence (P00760 24-246): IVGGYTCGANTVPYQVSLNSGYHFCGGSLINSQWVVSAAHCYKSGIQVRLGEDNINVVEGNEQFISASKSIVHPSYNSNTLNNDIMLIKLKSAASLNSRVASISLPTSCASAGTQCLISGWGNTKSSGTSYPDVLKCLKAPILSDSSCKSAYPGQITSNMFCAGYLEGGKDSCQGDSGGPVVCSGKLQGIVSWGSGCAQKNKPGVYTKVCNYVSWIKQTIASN
Put plainly: inhibitory activity against trypsin. It counts as biochemical.

The mark [4] stands for this setting: amount of compound in the assay.

Sequence of thermolysin (P00800 233-548): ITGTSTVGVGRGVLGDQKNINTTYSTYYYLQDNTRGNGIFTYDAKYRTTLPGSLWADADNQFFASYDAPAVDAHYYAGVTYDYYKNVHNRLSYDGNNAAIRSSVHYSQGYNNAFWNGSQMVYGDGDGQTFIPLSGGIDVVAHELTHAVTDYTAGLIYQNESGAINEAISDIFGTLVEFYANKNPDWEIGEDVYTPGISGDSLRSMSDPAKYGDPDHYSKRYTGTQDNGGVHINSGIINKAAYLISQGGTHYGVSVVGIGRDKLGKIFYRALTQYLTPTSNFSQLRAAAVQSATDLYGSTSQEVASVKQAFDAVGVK
Sequence of pepsin (P00791 60-385): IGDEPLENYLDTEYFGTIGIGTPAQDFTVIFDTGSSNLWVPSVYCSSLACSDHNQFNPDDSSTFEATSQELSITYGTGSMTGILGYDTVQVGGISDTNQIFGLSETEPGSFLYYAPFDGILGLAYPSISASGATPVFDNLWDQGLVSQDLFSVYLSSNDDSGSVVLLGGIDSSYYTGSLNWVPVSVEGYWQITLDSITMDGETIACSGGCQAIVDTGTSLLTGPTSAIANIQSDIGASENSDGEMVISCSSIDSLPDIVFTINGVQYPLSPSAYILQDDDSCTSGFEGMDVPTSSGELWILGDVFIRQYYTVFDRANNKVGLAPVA

On to `CC(C)C[C@H](NP(=O)(O)OC1O[C@@H](C)[C@@H](O)[C@@H](O)[C@H]1O)C(=O)N[C@@H](Cc1c[nH]c2ccccc12)C(=O)O` (stereo partly drawn) [novel tryptophan derivative, N-(6-deoxy-L-talosyloxy hydroxyphosphinyl)-L-leucyl-L-tryptophan], for which the “inhibiting activity (in words)” value against papain is reported as “does not inhibit”; against pepsin it was “does not inhibit”; in the data set on subtilis, “does not inhibit”; at thermolysin, “strongly inhibits”; against chymotrypsin it was “does not inhibit”; in data set [2], “inhibits”. In addition, the figures for the “inhibiting activity (in words)” value (in [3]; on trypsin) were “strongly inhibits” and “does not inhibit”, respectively. For the same compound, the “Amount necessary for inhibiting 50% of the enzyme activity” value at thermolysin (setting [4]) came to 0.35 µg; in data set [3] (setting [4]), 4 µg. The Stability entry in data set [1] (acidic aqueous solution) is reported as “Unstable”; in data set [1] (weak acidic, neutral, or alkaline aqueous solution), “Stable”. For the same compound, in data set [1] (standing for 24 hours at pH 1), the “Stability (remaining activity)” value is “Activity is lost completely”. In addition, the Solubility entry in the data set “Solubility” (benzene) is reported as “Insoluble”; in “Solubility” (chloroform) it was “Insoluble”; in “Solubility” (ethanol) it was “Soluble”; in “Solubility” (ether), “Insoluble”; in “Solubility” (hexane) it was “Insoluble”; in the data set “Solubility” (methanol), “Soluble”. Further, the Solubility entry in “Solubility” (water) is reported as “Soluble”.

The record behind these values is patent US4382888A, “Tryptophan derivative and process for production thereof” (Ajinomoto Company Incorporated, priority 1978, dated 1983).
